Tests used:
[1] = molecular target: Delta-type opioid receptor (Homo sapiens, UniProt P41143); experiment: Selectivity interaction (GPCR panel (PDSP screen)) EUB0000311b OPRD1; conditions: at 10 µM
[2] = molecular target: Serine/threonine-protein kinase SIK2 (Homo sapiens) (UniProt Q9H0K1); experiment: Selectivity interaction (KinomeScan (DiscoverX)) EUB0001049a SIK2; conditions: at 1 µM
[3] = molecular target: SRSF protein kinase 3 (Homo sapiens) (UniProt Q9UPE1); experiment: Selectivity interaction (KinomeScan (DiscoverX)) EUB0001049a SRPK3; conditions: at 1 µM
[4] = molecular target: Protein kinase C delta type (Homo sapiens) (UniProt Q05655); experiment: Selectivity interaction (Millipore kinase profiler) EUB0000124b PRKCD; conditions: at 10 µM
[5] = molecular target: T1, NUAK family SNF1-like kinase 1 (Homo sapiens) (UniProt O60285); experiment: Selectivity interaction (Kinase panel (literature)) EUB0001199aCl NUAK1; conditions: at 1 µM
T1 sequence (whole entry): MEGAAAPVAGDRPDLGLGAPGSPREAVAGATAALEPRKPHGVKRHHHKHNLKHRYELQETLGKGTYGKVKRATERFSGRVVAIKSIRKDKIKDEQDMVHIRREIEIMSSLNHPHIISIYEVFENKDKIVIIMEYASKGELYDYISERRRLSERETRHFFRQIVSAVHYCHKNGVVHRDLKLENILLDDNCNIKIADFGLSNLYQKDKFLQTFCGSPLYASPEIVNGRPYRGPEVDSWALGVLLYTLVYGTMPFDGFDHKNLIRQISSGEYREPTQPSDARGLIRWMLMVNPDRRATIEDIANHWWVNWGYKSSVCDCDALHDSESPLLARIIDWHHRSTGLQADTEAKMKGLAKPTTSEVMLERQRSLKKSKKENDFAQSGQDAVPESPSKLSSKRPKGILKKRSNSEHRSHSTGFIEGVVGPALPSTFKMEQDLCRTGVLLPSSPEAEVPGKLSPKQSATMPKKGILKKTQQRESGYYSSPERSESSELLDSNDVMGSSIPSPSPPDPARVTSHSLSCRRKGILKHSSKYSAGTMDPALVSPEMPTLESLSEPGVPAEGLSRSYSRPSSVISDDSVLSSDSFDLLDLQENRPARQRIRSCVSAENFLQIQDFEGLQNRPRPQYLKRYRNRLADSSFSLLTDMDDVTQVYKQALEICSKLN

[6] = molecular target: Interleukin-1 receptor-associated kinase 1 (Homo sapiens) (UniProt P51617); experiment: Selectivity interaction (KinomeScan (DiscoverX)) EUB0000666a IRAK1; conditions: at 10 µM
[7] = molecular target: Serine/threonine-protein kinase 38 (Homo sapiens) (UniProt Q15208); experiment: Selectivity interaction (KinomeScan (DiscoverX)) EUB0000666a STK38; conditions: at 10 µM
[8] = molecular target: Tyrosine-protein kinase Lck (Homo sapiens, UniProt P06239); experiment: Selectivity interaction (KinomeScan (DiscoverX)) EUB0000229b LCK; conditions: at 10 µM
[9] = molecular target: Mitogen-activated protein kinase 14 (Homo sapiens, UniProt Q16539); experiment: Selectivity interaction (Kinase panel (DSF assay)) EUB0001559a MAPK14
[10] = molecular target: Dual specificity mitogen-activated protein kinase kinase 1 (Homo sapiens, UniProt Q02750); experiment: Selectivity interaction (ActivX KiNativ screen (kinase selectivity in THP-1 cell lysates)) EUB0000639a MAP2K1; format: subcellular; conditions: lysate, at 1 µM
[11] = molecular target: Phosphatidylinositol 4-kinase type 2-beta (Homo sapiens) (UniProt Q8TCG2); experiment: Selectivity interaction (ActivX KiNativ screen (kinase selectivity in THP-1 cell lysates)) EUB0000639a PI4K2B; format: subcellular; conditions: lysate
[12] = molecular target: Ribosomal protein S6 kinase alpha-3 (Homo sapiens, UniProt P51812); experiment: Selectivity interaction (ActivX KiNativ screen (kinase selectivity in THP-1 cell lysates)) EUB0000639a RPS6KA3; format: subcellular; conditions: lysate, at 0.01 µM
[13] = molecular target: Casein kinase I isoform alpha (Homo sapiens, UniProt P48729); experiment: Selectivity interaction (KinomeScan (DiscoverX)) EUB0000595a CSNK1A1; conditions: at 10 µM
[14] = molecular target: Tyrosine-protein kinase Fgr (Homo sapiens) (UniProt P09769); experiment: Selectivity interaction (KinomeScan (DiscoverX)) EUB0000092b FGR; conditions: at 10 µM
[15] = molecular target: Tyrosine-protein kinase JAK1 (Homo sapiens, UniProt P23458); experiment: Selectivity interaction (KinomeScan (DiscoverX)) EUB0000092b JAK1; conditions: at 10 µM
[16] = molecular target: Serine/threonine-protein kinase SBK1 (Homo sapiens) (UniProt Q52WX2); experiment: Selectivity interaction (KinomeScan (DiscoverX)) EUB0000045b SBK1; conditions: at 1 µM
[17] = molecular target: T2, Serine/threonine-protein kinase 17B (Homo sapiens) (UniProt O94768); conditions: at 10 µM
T2 sequence (whole entry): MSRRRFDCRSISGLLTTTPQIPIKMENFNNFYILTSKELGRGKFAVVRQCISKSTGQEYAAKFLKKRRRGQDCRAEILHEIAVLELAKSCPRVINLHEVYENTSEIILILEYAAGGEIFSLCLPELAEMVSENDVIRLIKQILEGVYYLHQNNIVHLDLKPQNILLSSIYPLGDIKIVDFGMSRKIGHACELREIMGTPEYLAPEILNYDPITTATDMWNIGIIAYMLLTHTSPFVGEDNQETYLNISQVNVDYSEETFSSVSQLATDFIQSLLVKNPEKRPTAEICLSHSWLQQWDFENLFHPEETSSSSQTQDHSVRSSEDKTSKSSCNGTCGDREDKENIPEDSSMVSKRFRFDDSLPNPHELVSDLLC

[18] = system: Tyrosine-protein kinase ABL1 (Homo sapiens), P00519 [T315I]; experiment: Selectivity interaction (KinomeScan (DiscoverX)) EUB0000655a ABL1; conditions: at 10 µM
[19] = molecular target: Mitogen-activated protein kinase kinase kinase 11 (Homo sapiens) (UniProt Q16584); experiment: Selectivity interaction (KinomeScan (DiscoverX)) EUB0000655a MAP3K11; conditions: at 10 µM
[20] = molecular target: Cyclin-dependent kinase 17 (Homo sapiens) (UniProt Q00537); experiment: Selectivity interaction (KinomeScan (DiscoverX)) EUB0000607a CDK17; conditions: at 10 µM
[21] = molecular target: Maternal embryonic leucine zipper kinase (Homo sapiens) (UniProt Q14680); experiment: Selectivity interaction (KinomeScan (DiscoverX)) EUB0000607a MELK; conditions: at 10 µM
[22] = molecular target: Potassium voltage-gated channel subfamily A member 5 (Homo sapiens) (UniProt P22460); experiment: Selectivity interaction (Panel of kinases, GPCRs, ion channels and transporters (enzymatic assay)) EUB0000223bCl KCNA5
OATP1B1 (SLCO1B1) = OATP1B1 (SLCO1B1) (Homo sapiens, UniProt Q9Y6L6); experiment: Selectivity interaction (Panel of kinases, GPCRs, ion channels and transporters (enzymatic assay)) EUB0000223bCl SLCO1B1; conditions: not told
[23] = molecular target: Serine/threonine-protein kinase SIK1 (Homo sapiens) (UniProt P57059); experiment: Selectivity interaction (LanthaScreen Eu Kinase Binding Assay) EUB0001632a SIK1; conditions: at 10 µM

Sequence of Phosphatidylinositol 4-kinase type 2-beta (Homo sapiens) (Q8TCG2 whole entry): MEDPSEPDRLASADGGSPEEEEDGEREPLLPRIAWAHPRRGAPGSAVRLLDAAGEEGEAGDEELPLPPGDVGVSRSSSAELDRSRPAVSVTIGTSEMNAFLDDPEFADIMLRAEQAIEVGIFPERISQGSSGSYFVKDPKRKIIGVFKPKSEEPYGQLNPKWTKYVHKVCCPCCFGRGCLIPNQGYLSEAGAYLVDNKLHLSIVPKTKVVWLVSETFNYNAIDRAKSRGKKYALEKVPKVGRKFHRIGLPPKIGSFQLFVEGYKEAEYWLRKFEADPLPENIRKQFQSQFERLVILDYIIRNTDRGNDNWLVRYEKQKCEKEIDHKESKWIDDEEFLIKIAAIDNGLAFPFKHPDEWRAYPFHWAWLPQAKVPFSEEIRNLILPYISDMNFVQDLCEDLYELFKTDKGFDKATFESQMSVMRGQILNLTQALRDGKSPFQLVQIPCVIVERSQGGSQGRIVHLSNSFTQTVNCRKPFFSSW
Sequence of Interleukin-1 receptor-associated kinase 1 (Homo sapiens) (P51617 whole entry, looked up): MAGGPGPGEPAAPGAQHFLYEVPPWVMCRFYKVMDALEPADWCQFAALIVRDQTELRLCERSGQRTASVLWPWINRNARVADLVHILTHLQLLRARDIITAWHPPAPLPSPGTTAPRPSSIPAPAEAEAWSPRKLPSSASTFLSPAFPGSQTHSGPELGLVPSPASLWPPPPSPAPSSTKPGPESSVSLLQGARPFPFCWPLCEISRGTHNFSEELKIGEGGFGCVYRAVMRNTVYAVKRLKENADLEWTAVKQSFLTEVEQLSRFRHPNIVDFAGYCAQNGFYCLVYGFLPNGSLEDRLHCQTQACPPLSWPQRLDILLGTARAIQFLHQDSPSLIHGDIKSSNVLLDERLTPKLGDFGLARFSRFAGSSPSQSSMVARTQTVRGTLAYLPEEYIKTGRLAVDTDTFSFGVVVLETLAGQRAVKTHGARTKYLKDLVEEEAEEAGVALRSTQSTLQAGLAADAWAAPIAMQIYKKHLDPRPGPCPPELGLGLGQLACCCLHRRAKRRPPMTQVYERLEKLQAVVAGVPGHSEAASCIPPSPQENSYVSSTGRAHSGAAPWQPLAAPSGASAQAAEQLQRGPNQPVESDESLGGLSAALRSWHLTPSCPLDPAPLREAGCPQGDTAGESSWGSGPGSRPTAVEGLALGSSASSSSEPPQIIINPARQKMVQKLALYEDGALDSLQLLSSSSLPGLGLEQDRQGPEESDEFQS
Sequence of Protein kinase C delta type (Homo sapiens) (Q05655 whole entry, looked up): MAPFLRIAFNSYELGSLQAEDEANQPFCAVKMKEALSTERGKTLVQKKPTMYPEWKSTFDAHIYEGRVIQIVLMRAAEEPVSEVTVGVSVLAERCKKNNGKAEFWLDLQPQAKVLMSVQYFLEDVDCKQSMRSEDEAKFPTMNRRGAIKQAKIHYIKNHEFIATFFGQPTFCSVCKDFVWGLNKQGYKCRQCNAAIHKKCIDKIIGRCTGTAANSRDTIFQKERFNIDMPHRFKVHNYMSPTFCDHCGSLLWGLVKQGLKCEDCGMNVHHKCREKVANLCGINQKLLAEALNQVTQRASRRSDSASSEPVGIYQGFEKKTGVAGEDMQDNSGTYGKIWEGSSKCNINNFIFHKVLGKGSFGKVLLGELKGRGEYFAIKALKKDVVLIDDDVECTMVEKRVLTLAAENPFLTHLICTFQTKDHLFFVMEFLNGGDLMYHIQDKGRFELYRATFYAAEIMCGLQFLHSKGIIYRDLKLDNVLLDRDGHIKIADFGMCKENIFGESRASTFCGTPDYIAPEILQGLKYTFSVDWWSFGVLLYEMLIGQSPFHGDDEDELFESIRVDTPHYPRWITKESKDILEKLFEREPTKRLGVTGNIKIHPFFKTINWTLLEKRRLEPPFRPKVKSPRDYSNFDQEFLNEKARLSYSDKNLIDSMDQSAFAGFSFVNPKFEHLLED
Sequence of Casein kinase I isoform alpha (P48729 2-337 limits assumed): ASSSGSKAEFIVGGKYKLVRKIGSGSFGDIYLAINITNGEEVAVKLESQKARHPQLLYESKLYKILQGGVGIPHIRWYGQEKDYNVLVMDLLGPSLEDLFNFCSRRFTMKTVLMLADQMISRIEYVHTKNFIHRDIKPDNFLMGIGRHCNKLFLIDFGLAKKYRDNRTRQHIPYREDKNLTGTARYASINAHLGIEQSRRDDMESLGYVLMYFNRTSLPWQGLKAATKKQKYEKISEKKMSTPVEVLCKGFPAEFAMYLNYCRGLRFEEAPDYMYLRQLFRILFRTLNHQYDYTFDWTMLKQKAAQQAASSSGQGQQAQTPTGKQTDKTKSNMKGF
Sequence of Dual specificity mitogen-activated protein kinase kinase 1 (Q02750 whole entry): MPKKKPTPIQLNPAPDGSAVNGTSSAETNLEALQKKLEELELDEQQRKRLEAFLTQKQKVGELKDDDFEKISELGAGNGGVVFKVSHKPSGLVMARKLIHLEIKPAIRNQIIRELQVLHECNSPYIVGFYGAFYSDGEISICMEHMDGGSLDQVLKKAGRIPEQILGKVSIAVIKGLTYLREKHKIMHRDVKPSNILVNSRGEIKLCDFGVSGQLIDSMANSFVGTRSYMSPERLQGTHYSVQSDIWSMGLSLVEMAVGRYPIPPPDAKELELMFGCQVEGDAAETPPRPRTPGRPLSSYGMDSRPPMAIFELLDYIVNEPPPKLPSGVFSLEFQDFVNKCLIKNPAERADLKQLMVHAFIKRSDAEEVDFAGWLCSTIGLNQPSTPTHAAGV
Sequence of Delta-type opioid receptor (P41143 whole entry): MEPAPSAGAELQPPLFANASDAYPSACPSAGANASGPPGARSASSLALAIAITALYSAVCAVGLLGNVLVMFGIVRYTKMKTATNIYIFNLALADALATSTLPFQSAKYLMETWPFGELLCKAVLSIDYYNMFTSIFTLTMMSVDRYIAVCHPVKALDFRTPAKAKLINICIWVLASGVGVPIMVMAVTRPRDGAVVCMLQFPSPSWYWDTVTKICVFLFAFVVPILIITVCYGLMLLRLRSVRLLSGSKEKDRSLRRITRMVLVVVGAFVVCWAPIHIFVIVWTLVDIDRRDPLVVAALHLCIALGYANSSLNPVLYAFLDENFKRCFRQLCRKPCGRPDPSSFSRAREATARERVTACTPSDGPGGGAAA
Sequence of SRSF protein kinase 3 (Homo sapiens) (Q9UPE1 whole entry): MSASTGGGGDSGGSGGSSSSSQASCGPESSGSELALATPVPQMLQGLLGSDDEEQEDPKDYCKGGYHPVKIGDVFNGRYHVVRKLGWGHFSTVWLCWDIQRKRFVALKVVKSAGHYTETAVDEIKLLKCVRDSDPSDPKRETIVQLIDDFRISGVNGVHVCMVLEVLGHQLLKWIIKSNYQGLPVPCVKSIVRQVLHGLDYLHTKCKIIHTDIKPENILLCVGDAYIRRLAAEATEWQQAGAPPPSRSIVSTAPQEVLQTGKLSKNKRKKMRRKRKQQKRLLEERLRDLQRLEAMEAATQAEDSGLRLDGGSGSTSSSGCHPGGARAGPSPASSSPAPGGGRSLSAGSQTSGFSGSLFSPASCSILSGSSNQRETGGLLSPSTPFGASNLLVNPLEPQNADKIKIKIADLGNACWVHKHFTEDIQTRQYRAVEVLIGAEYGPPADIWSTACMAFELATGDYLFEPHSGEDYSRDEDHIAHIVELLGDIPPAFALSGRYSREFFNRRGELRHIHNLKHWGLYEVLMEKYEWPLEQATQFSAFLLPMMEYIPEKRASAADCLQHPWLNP
Sequence of Tyrosine-protein kinase Fgr (Homo sapiens) (P09769 2-529 limits assumed): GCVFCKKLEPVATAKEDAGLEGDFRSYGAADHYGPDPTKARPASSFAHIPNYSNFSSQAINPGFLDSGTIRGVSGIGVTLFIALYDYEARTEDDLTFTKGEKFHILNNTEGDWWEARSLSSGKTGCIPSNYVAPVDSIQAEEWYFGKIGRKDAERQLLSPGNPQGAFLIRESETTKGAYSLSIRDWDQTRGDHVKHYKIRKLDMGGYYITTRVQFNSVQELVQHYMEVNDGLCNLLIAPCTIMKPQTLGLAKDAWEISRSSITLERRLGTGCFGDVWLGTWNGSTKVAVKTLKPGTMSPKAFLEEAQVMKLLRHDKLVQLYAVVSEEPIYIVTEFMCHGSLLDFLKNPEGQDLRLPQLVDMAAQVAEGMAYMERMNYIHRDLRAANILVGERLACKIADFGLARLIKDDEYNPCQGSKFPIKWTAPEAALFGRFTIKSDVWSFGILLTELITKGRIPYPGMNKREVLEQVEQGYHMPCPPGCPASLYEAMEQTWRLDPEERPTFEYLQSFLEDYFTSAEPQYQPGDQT
Sequence of OATP1B1 (SLCO1B1) (Q9Y6L6 whole entry): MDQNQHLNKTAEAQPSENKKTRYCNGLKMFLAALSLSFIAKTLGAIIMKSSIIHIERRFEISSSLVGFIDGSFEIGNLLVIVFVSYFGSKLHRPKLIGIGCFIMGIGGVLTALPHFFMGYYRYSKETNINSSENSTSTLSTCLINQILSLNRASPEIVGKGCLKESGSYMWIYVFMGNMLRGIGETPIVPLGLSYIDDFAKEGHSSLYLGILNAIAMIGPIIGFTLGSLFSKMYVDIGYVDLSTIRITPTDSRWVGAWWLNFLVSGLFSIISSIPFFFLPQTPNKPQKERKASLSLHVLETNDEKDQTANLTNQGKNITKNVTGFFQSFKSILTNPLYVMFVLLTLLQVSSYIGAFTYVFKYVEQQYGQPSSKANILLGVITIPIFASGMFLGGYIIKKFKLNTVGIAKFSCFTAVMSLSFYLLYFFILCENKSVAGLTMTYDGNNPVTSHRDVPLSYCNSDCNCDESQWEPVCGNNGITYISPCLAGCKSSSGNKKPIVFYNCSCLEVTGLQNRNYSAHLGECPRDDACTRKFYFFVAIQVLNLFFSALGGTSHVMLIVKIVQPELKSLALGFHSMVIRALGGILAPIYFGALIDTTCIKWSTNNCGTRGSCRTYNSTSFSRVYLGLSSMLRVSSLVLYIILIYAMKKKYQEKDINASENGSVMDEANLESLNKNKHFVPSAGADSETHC

`CCc1ccccc1C(=O)Nc1n[nH]c2c(C)c(F)c(C3C(C#N)=C(C)N(C)C(C)=C3C#N)cc12` [BAY-3827] gave a % of inhibition [1] of 20.5%.

`COc1cc(Nc2nc(C)cc(-c3cnn4nc(OC)ccc34)n2)cc(C(F)(F)F)c1` gave a % of control [2] of 100% and a % of control [3] of 65%.

`CC(=O)Nc1cccc(-n2c(=O)n(C3CC3)c(=O)c3c(Nc4ccc(I)cc4F)n(C)c(=O)c(C)c32)c1` showed a % of control [4] of 97%.

Work on `CN1Cc2nccc(-c3cn(C)nc3-c3ccc(F)cc3)c2C1=O` yielded a % of inhibition [5] of -6%.

`O=C(NOC[C@H](O)CO)c1ccc(F)c(F)c1Nc1ccc(I)cc1F` showed a % of control [6] of 100% and a % of control [7] of 100%.

For `COc1cc(N(C)c2ccnc3ccc(C(F)(F)F)cc23)cc(OC)c1OC`, the % binding [8] was 80%.

Work on `CN(C(=O)c1cnn2cccnc12)c1cc2c(cc1N1CCOCC1)C(=O)N(C[C@@H](F)C(C)(C)O)C2` yielded a dTM [9] of -0.3 K.

`CC[C@@H]1[C@H](F)C(=O)N[C@@H]1COc1nccc2cc(C(N)=O)c(OC)cc12` [ZIMLOVISERTIB] showed a % of inhibition [10] of 0.2%, a % of inhibition ([11]; at 0.01 µM) of 13.9% and a % of inhibition ([11]; at 0.04 µM) of -2.8%. The % of inhibition ([11]; at 0.2 µM) was -47.4%, the % of inhibition ([11]; at 1 µM) was -23.2% and the % of inhibition ([11]; at 5 µM) was -24%. The % of inhibition [12] was 5%.

`COCC(=O)NC/C=C/c1ccc2ncnc(Nc3ccc(Oc4ccc(C)nc4)c(C)c3)c2c1` [CP-724714] showed a % of control [13] of 100%.

In the case of `CCC(=O)N1CCN(c2ccc(-n3c(=O)ccc4cnc5ccc(-c6cnc7ccccc7c6)cc5c43)cc2C(F)(F)F)CC1`, the % of control [14] is reported as 78% and the % of control [15] is reported as 76%.

With `C=CC(=O)Nc1cc(-n2c(=O)ccc3cnc4ccc(-c5ccc(NS(C)(=O)=O)cc5)cc4c32)ccc1C` the % of control [16] was 4.6%.

`Cc1cc([C@@H](C)Nc2ccccc2C(=O)O)c2nc(N3CCOCC3)cc(=O)n2c1` [AZD-6482] was tested, and the % of control [17] was 100%.

`CN(C)CCOc1ccc(-c2nc(-c3ccncc3)c(-c3ccc4c(c3)CC/C4=N\O)[nH]2)cc1` was tested, and the % of control [18] was 5.4% and the % of control [19] was 100%.

`CNC(=O)Nc1ccc(-c2nc(N3CC4CCC(C3)O4)c3cnn(C4CCC5(CC4)OCCO5)c3n2)cc1` showed a % of control [20] of 100% and a % of control [21] of 92%.

For `COc1cc(C(=O)N2CC[C@@H](O)[C@@H](N)C2)cc2nc(-c3cc4ccccc4n3CC3CC3)n(C)c12`, the pXC50 [22] was < 4.8 M and the XC50 (OATP1B1 (SLCO1B1)) was 7.94 µM.

Work on `Cn1cc(-n2cnc3c(NCc4nc5cc(Cl)c(Cl)cc5[nH]4)nc(N4CCOCC4)nc32)cn1` yielded a % of inhibition [23] of -0.976%.

From ChEMBL document CHEMBL5465560, “Selectivity Literature for EUbOPEN Chemogenomic Library” (2024)
